# Measured values from patent US8912338B2, “Pesticidal compositions” (Dow AgroSciences LLC, priority 2010, dated 2014).
# Tests used:
# [1] = tested on: Cotton Aphid (Aphis gossypii); experiment: Insecticidal test for cotton aphid in a foliar spray assay; assay type: in vivo; conditions: 72 h, 200 ppm foliar spray on squash or cotton seedlings, live aphids counted after three days, Abbott's corrected % control, read-out: APHIGO % Ctrl @ 200 ppm
# Method: Squash or cotton seedlings with fully expanded cotyledon leaves were trimmed to one cotyledon per plant and infested with wingless adult and nymph stage cotton aphid (APHIGO) one day prior to chemical application. Each plant was examined before chemical application to ensure uniform infestation (ca. 30-70 aphids per plant). Compounds (2 mg) were dissolved in 2 mL of acetone/methanol (1:1) solvent, forming stock solutions of 1000 ppm. The stock solutions were diluted 5× with 0.025% Tween 20 in H2O to obtain a solution at 200 ppm. A hand-held Devilbiss aspirator type sprayer was used to apply the spray solutions until runoff to both sides of the squash cotyledon leaves. Four plants (4 replications) were used for each concentration of each compound. Reference plants (solvent check) were sprayed with the diluent only. Treated plants were held in a holding room for three days at approximately 25° C. and 40% RH before the number of live cotton aphids on each plant was recorded. Insecticidal activity data presented in Table 3 were generated by using Abbott's correction formula: Corrected%Control=100*(X−Y)/X • where X=No. of live aphids on solvent check plants • Y=No. of live aphids on treated plants
# [2] = tested on: Green Peach Aphid (Myzus persicae); experiment: Insecticidal test for green peach aphid in foliar spray assay; assay type: in vivo; conditions: 72 h, 200 ppm foliar spray on cabbage seedlings, live aphids counted after three days, Abbott's corrected % control, read-out: MYZUPE % Ctrl @ 200 ppm
# Method: Certain molecules disclosed in this document were tested against MYZUPE using procedures described in the following example. In the reporting of the results, the “MYZUPE, APHIGO and BEMITA Rating Table” was used (See Table Section).
# Cabbage seedlings grown in 3-inch pots, with 2-3 small (3-5 cm) true leaves, were used as test substrate. The seedlings were infested with 20-50 green peach aphids (wingless adult and nymph stage) one day prior to chemical application. Four pots with individual seedlings were used for each treatment. Compounds (2 mg) were dissolved in 2 mL of acetone/methanol (1:1) solvent, forming stock solutions of 1000 ppm. The stock solutions were diluted 5× with 0.025% Tween 20 in H2O to obtain the test solution at 200 ppm. A hand-held Devilbiss sprayer was used for spraying a solution to both sides of cabbage leaves until runoff. Reference plants (solvent check) were sprayed with the diluent only. Treated plants were held in a holding room for three days at approximately 25° C. and 40% relative humidity (RH) prior to grading. Evaluation was conducted by counting the number of live aphids per plant under a microscope. Insecticidal activity data presented in Table 3 were generated by using Abbott's correction formula: Corrected%Control=100*(X−Y)/X • where X=No. of live aphids on solvent check plants • Y=No. of live aphids on treated plants
# [3] = tested on: Sweetpotato Whitefly (Bemisia tabaci); experiment: Insecticidal test for sweetpotato whitefly in foliar spray assay; assay type: in vivo; conditions: 200 ppm foliar spray on cotton plants infested with eggs, live nymphs counted after 8-9 days, Abbott's corrected % control, read-out: BEMITA % Ctrl @ 200 ppm
# Method: Cotton plants were used as test substrate and were grown in 3-inch pots and pruned until only 1 small (3-5 cm) true leaf remained. The plants were then placed in a room with whitefly ([…]) adults and allowed to be infested with eggs. After a 2-3 day egg-laying period, plants were taken from the adult whitefly room and the adults were removed from the leaves using compressed air delivered through a hand-held Devilbiss sprayer (23 psi). Plants infested with eggs (100-300 eggs per plant) were placed in a controlled-environment room for 5-6 days at 82° F. and 50% RH until approximately 50% egg hatch. Four cotton plants (4 replicates) were used for each treatment. Compounds (2 mg) were dissolved in 1 mL of acetone solvent, forming stock solutions of 2000 ppm. The stock solutions were diluted 10× with 0.025% Tween 20 in H2O to obtain the test solution of 200 ppm. A hand-held Devilbiss sprayer was used for spraying a solution to both sides of cotton leaf until runoff. Reference plants (solvent check) were sprayed with the diluent only. Treated plants were held in a holding room for 8-9 days at approximately 82° F. and 50% RH prior to grading. Evaluation was conducted by counting the number of live nymphs per plant under a microscope. Insecticidal activity data presented in Table 3 were generated by using Abbott's correction formula: Corrected%Control=100*(X-Y)/X • where X=No. of live nymphs on solvent check plants • Y=No. of live nymphs on treated plants […]
compound,measurement,setting,value
CN(C(=O)C(C)(C)CO[Si](C)(C)C(C)(C)C)c1nnc(-c2cncc(F)c2)s1,melting point,,102 to 105 °C
CN(C(=O)CCSc1ccccc1)c1nnc(-c2cccnc2)s1 [Compound 10],inhibition at 200 ppm,[1],0 to 80%
same,inhibition at 200 ppm,[2],80 to 100%
CCSC(C)CC(=O)N(C)c1nnc(-c2cccnc2)s1 (stereo not shown) [Compound 13],inhibition at 200 ppm,[1],80 to 100%
same,inhibition at 200 ppm,[2],80 to 100%
same,inhibition at 200 ppm,[3],0 to 80%
CCOC(=O)Nc1nnc(-c2cccnc2)s1 [Compound 14],inhibition at 200 ppm,[1],0 to 80%
same,inhibition at 200 ppm,[2],< 0%
same,melting point,,127 to 132 °C
CCOC(=O)N(C)c1nnc(-c2cccnc2)s1 [Compound 15],inhibition at 200 ppm,[1],0 to 80%
same,inhibition at 200 ppm,[2],< 0%
same,melting point,,162 to 164 °C
COCCOC(=O)N(C)c1nnc(-c2cccnc2)s1 [Compound 16],inhibition at 200 ppm,[1],80 to 100%
same,inhibition at 200 ppm,[2],0 to 80%
CCSCC(C)(C)C(=O)N(C)c1nnc(-c2cccnc2)s1 [Compound 17],inhibition at 200 ppm,[1],80 to 100%
same,inhibition at 200 ppm,[2],80 to 100%
same,inhibition at 200 ppm,[3],0 to 80%
"CS/C=C/C(=O)N(C)c1nnc(-c2cccnc2)s1 [Compound 21, (E)-N-methyl-3-(methylthio)-N-(5-(pyridin-3-yl)-1,3,4-thiadiazol-2-yl)acrylamide]",inhibition at 200 ppm,[1],0 to 80%
same,inhibition at 200 ppm,[2],80 to 100%
"CN(C(=O)CCSC(c1ccccc1)(c1ccccc1)c1ccccc1)c1nnc(-c2cccnc2)s1 [Compound 22, N-methyl-N-(5-(pyridin-3-yl)-1,3,4-thiadiazol-2-yl)-3-(tritylthio)propanamide]",inhibition at 200 ppm,[1],< 0%
same,inhibition at 200 ppm,[2],0 to 80%
same,melting point,,60 to 75 °C
"CN(C(=O)CCNC#N)c1nnc(-c2cccnc2)s1 [Compound 23, 3-(cyanoamino)-N-methyl-N-[5-(3-pyridyl)-1,3,4-thiadiazol-2-yl]propanamide]",inhibition at 200 ppm,[1],80 to 100%
same,inhibition at 200 ppm,[2],80 to 100%
same,melting point,,155 to 159 °C
"CN(C(=O)CCS)c1nnc(-c2cccnc2)s1 [Compound 25, 3-mercapto-N-methyl-N-(5-(pyridin-3-yl)-1,3,4-thiadiazol-2-yl)propanamide]",inhibition at 200 ppm,[1],80 to 100%
same,inhibition at 200 ppm,[2],80 to 100%
same,melting point,,149 to 151 °C
"CC(=O)SCCC(=O)N(C)c1nnc(-c2cccnc2)s1 [Compound 26, S-3-(methyl(5-(pyridin-3-yl)-1,3,4-thiadiazol-2-yl)-amino)-3-oxopropyl ethanethioate]",inhibition at 200 ppm,[1],0 to 80%
same,inhibition at 200 ppm,[2],0 to 80%
same,melting point,,133 to 135 °C
"CN(C(=O)CCSC(F)(F)F)c1nnc(-c2cccnc2)s1 [Compound 27, N-methyl-N-(5-(pyridin-3-yl)-1,3,4-thiadiazol-2-yl)-3-(trifluoromethylthio)propanamide]",inhibition at 200 ppm,[1],80 to 100%
same,inhibition at 200 ppm,[2],0 to 80%
"CSCC(C)C(=O)N(C)c1nnc(-c2cccnc2)s1 (stereo not shown) [Compound 28, N-2-Dimethyl-3-(methylthio)-N-(5-(pyridin-3-yl)-1,3,4-thiadiazol-2-yl)propanamide]",inhibition at 200 ppm,[1],80 to 100%
same,inhibition at 200 ppm,[2],80 to 100%
same,inhibition at 200 ppm,[3],0 to 80%
CN(C(=O)CCNC(=O)OCc1ccccc1)c1nnc(-c2cccnc2)s1 [Compound 30],inhibition at 200 ppm,[1],0 to 80%
same,inhibition at 200 ppm,[2],< 0%
CN(CCC(=O)N(C)c1nnc(-c2cccnc2)s1)C(=O)OCc1ccccc1 [Compound 31],inhibition at 200 ppm,[1],< 0%
same,inhibition at 200 ppm,[2],< 0%
CN(C(=O)C(C)(C)C[S+](C)[O-])c1nnc(-c2cccnc2)s1 (stereo not shown) [Compound 32],inhibition at 200 ppm,[1],80 to 100%
same,inhibition at 200 ppm,[2],80 to 100%
same,inhibition at 200 ppm,[3],80 to 100%
CN(C(=O)C(C)(C)CS(C)(=O)=O)c1nnc(-c2cccnc2)s1 [Compound 33],inhibition at 200 ppm,[1],80 to 100%
same,inhibition at 200 ppm,[2],80 to 100%
same,inhibition at 200 ppm,[3],0 to 80%
CSCC(C)(C)C(=O)Nc1nnc(-c2cccnc2)s1 [Compound 35],inhibition at 200 ppm,[1],80 to 100%
same,inhibition at 200 ppm,[2],0 to 80%
same,melting point,,182 to 188 °C
CC(C)(CS(C)(=O)=O)C(=O)Nc1nnc(-c2cccnc2)s1 [Compound 36],inhibition at 200 ppm,[1],80 to 100%
same,inhibition at 200 ppm,[2],0 to 80%
CN(C(=O)CCS(=O)(=O)Cc1ccccc1)c1nnc(-c2cccnc2)s1 [Compound 40],inhibition at 200 ppm,[1],< 0%
same,inhibition at 200 ppm,[2],< 0%
same,melting point,,198 to 201 °C
"CN(C(=O)CCN)c1nnc(-c2cccnc2)s1 [Compound 41, 3-amino-N-methyl-N-(5-(pyridin-3-yl)-1,3,4-thiadiazol-2-yl)propanamide]",inhibition at 200 ppm,[1],80 to 100%
same,inhibition at 200 ppm,[2],0 to 80%
same,melting point,,110 to 112 °C
CSCCCN(C(C)=O)c1nnc(-c2cccnc2)s1 [Compound 47],inhibition at 200 ppm,[1],0 to 80%
same,inhibition at 200 ppm,[2],< 0%
CN(C(=O)OCCS(C)(=O)=O)c1nnc(-c2cccnc2)s1 [Compound 52],inhibition at 200 ppm,[1],0 to 80%
same,inhibition at 200 ppm,[2],0 to 80%
same,melting point,,198 to 200 °C
"CSCOC(=O)N(C)c1nnc(-c2cccnc2)s1 [Compound 54, methylthiomethyl methyl(5-(pyridin-3-yl)-1,3,4-thiadiazol-2-yl)carbamate]",inhibition at 200 ppm,[1],0 to 80%
same,inhibition at 200 ppm,[2],< 0%
"CSC(=O)N(C)c1nnc(-c2cccnc2)s1 [Compound 55, S-methyl methyl(5-(pyridin-3-yl)-1,3,4-thiadiazol-2-yl)carbamothioate]",inhibition at 200 ppm,[1],0 to 80%
same,inhibition at 200 ppm,[2],< 0%
same,melting point,,192 to 194 °C
CSCC(Cc1ccccc1)C(=O)N(C)c1nnc(-c2cccnc2)s1 (stereo not shown) [Compound 57],inhibition at 200 ppm,[1],0 to 80%
same,inhibition at 200 ppm,[2],0 to 80%
CSCCC(=O)N(c1ccccc1)c1nnc(-c2cccnc2)s1 [Compound 58],inhibition at 200 ppm,[1],< 0%
same,melting point,,117 to 120 °C
COC(=O)CCC(=O)N(c1ccccc1)c1nnc(-c2cccnc2)s1 [Compound 59],inhibition at 200 ppm,[1],0 to 80%
same,inhibition at 200 ppm,[2],< 0%
same,melting point,,152 to 155 °C
CSCCC(=O)N(C)c1nnc(-c2cnccc2C(F)(F)F)s1 [Compound 60],inhibition at 200 ppm,[1],0 to 80%
same,inhibition at 200 ppm,[2],< 0%
"CSCCN(C)C(=O)N(C)c1nnc(-c2cncc(F)c2)s1 [Compound 83, 1-[5-(5-fluoro-pyridin-3-yl)-[1,3,4]thiadiazol-2-yl]-1,3-dimethyl-3-(2-methylsulfanyl-ethyl)-urea]",inhibition at 200 ppm,[2],80 to 100%
same,inhibition at 200 ppm,[3],0 to 80%
"CSCCNC(=S)N(C)c1nnc(-c2cncc(F)c2)s1 [Compound 86, 1-[5-(5-fluoro-pyridin-3-yl)-[1,3,4]thiadiazol-2-yl]-1-methyl-3-(2-methylsulfanyl-ethyl)-thiourea]",inhibition at 200 ppm,[2],80 to 100%
same,inhibition at 200 ppm,[3],80 to 100%
CCOC(=O)N(C)c1nnc(-c2cncc(F)c2)s1 [Compound 87],inhibition at 200 ppm,[3],80 to 100%
CSCCC(=O)N(C)c1nnc(-c2ccncc2)s1 [Compound 96],inhibition at 200 ppm,[1],0 to 80%
same,melting point,,152 to 154 °C
COC(=O)CCC(=O)N(C)c1nnc(-c2ccncc2)s1 [Compound 97],inhibition at 200 ppm,[1],0 to 80%
same,inhibition at 200 ppm,[2],< 0%
same,melting point,,175 to 177 °C
CSCCC(=O)N(CC1CC1)c1nnc(-c2cccnc2)s1 [Compound 98],inhibition at 200 ppm,[2],80 to 100%
same,inhibition at 200 ppm,[3],< 0%
